The results in this text go back to US11242337B2, “Compounds useful for treating gastrointestinal tract disorders” (Ardelyx, Inc., priority 2017, dated 2022).

Assay [1] has as its system human duodenum monolayer culture. Nature of the assay: Sustained inhibition of apical acid secretion in human organoid monolayer cell cultures (duodenum). It counts as cell-based. Conditions: Homo sapiens. The protocol: Basal media (BM) consisted of advanced DMEM/F12 containing 10 mM HEPES Invitrogen, 15630-080), 1:100 Glutamax (Invitrogen, 35050-061), and 1:100 penicillin/streptomycin (Invitrogen, 15140-122). Supplemented basal media (SBM) contained 1:100 N2 (Invitrogen, 17502-048), 1:50 B27 (Invitrogen, 12587-010), 1 mM N-acetylcysteine (Sigma, A9165), and 10 nM [Leu15]-gastrin I (Sigma, G9145). Growth factors used included 50 ng per mL mouse EGF (Peprotech, 315-09), 100 ng per mL mouse noggin (Peprotech, 250-38), 500 ng per mL human R-spondin 1 (R&D, 4645-RS), 100 ng per mL mouse Wnt-3a (R&D, 1324-WN), 20 μM. Y-27632 (Tocris, 1254), 10 mM nicotinamide (Sigma, N0636), 500 nM A83-01 (Tocris, 2939), 10 μM SB202190 (Tocris, 1264). Transwells were 0.4 μm pore polyester membrane 24-well Transwell inserts (Corning). Cultures were incubated at 37° C. in 5% CO2.
Each human ileum monolayer culture well was washed twice with fresh SBM on the apical side on day 6 before compound dosing. All compound stocks were 10 mM dissolved in DMSO. Each compound stock was individually mixed with fresh SBM to reach final compound concentration 1 μM and dosed only on the apical side of the monolayer (total volume 200 μl). DMSO at the equivalent concentration was used as the vehicle control. Duplicate wells were dosed for each compound. On day 8, apical media pH was measured by pH electrode, to determine the ability of example compounds to produce sustained inhibition of NHE3 activity in a human monolayer culture system by preventing proton secretion into the apical compartment.
Human duodenum organoids were cultured in WENRNAS (Wnt, EGF, noggin, R-spondin1, Nicotinamide, A83-01, SB202190) and typically grown for 7-12 days before being used to plate monolayer cultures. On day 0, organoid cultures embedded in Matrigel were treated with TrypLE Express to break organoids into small pieces and/or single cells. The cells were resuspended to 0.5×10^6 cells/mL in SBM containing WENRAY (Wnt, EGF, noggin, R-spondin1, A83-01, Y-27632). Following this step, 200 μL of cell suspension was plated into the apical side of a 24-well Transwell (100,000 cells/well) and 600 μL of SBM with WENRAY was added to the basolateral side. Duodenum cells were differentiated with ENA (EGF, noggin, A83-01) on day 3. The color of apical compartment turns from pink or orange to yellow due to the increase in NHE3 expression after differentiation.

For assay [2], the target named is T1, NHE3 (Homo sapiens, UniProt P48764).
T1 construct: expressed in transfected cells
T1 sequence (P48764 26-834): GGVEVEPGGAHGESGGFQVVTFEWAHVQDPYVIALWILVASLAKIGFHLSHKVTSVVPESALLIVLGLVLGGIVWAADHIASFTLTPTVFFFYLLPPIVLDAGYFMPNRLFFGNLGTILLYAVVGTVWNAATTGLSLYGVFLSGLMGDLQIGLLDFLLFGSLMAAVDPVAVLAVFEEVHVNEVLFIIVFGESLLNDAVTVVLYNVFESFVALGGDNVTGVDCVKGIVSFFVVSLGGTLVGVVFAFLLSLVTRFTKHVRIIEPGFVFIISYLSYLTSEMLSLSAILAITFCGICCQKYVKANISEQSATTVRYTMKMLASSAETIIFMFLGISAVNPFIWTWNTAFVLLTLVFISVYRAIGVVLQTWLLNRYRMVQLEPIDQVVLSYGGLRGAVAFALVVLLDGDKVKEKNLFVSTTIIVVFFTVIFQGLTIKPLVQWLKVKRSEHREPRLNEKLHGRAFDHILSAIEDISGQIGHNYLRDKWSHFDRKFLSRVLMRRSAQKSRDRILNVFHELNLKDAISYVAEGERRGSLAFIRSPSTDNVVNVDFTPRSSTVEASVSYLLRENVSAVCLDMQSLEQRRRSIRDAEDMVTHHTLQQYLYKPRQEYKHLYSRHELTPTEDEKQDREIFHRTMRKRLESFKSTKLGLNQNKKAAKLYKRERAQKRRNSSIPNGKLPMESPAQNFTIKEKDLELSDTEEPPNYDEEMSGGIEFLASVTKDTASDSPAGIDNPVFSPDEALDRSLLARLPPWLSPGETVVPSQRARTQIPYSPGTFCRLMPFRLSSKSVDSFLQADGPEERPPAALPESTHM
T1 sequence (Q99653 2-195 partner limits assumed): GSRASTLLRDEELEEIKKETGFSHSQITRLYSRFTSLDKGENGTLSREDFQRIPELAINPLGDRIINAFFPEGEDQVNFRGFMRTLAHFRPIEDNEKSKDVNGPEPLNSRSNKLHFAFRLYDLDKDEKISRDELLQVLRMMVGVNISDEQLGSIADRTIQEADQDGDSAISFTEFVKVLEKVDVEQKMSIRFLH
Nature of the assay: Cell-based assay of NHE-3 activity (pre-incubation inhibition), human. Conditions: human Preincubation; for pIC50: 0-30 μM test compound. The method, boiled down: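 Activity read as initial rate of BCECF fluorescence ratio change per minute (ex 439/505, em 538 nm) following NH4Cl prepulse acid loading. Compound (0–30 μM) present during 10 min Na+-free acidification at room temperature; cells were PS120 fibroblasts stably co-expressing human NHE3 and NHERF2.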

The structures appear in SMILES notation.

`Cc1cc(S(=O)(=O)NCCOCCOCCNC(=O)NCCCCNC(=O)NCCOCCOCCNS(=O)(=O)c2ccc(O[C@H]3c4cc(Cl)cc(Cl)c4C[C@@H]3N3CCNCC3)c(C)c2)ccc1O[C@H]1c2cc(Cl)cc(Cl)c2C[C@@H]1N1CCNCC1` [Example 32, 3-[2-(2-[2-[(4-[[(1S,2S)-4,6-Dichloro-2-(piperazin-1-yl)-2,3-dihydro-1H-inden-1-yl]oxy]-3-methylbenzene)sulfonamido]ethoxy]ethoxy)ethyl]-1-[4-([[2-(2-[2-[(4-[[(1S,2S)-4,6-dichloro-2-(piperazin-1-yl)-2,3-dihydro-1H-inden-1-yl]oxy]-3-methylbenzene)sulfonamido]ethoxy]ethoxy)ethyl]carbamoyl]amino)butyl]urea; bis(trifluoroacetic acid)]: the inhibition at 1 µM in assay [1] was > 70%. In assay [2], the “% inhibition” value was “C (>70%)” and the pIC50 result is “C (NHE3 pIC50 > 7)”.
Consider `O=C(NCCCCNC(=O)NCCOCCOCCNS(=O)(=O)c1ccc(O[C@H]2c3cc(Cl)cc(Cl)c3C[C@@H]2N2CCNCC2)c(F)c1)NCCOCCOCCNS(=O)(=O)c1ccc(O[C@H]2c3cc(Cl)cc(Cl)c3C[C@@H]2N2CCNCC2)c(F)c1` [Example 33, 3-[2-(2-[2-[(4-[[(1S,2S)-4,6-Dichloro-2-(piperazin-1-yl)-2,3-dihydro-1H-inden-1-yl]oxy]-3-fluorobenzene)sulfonamido]ethoxy]ethoxy)ethyl]-1-[4-[[(2-(2-[2-[(4-[[(1S,2S)-4,6-dichloro-2-(piperazin-1-yl)-2,3-dihydro-1H-inden-1-y]oxy]-3-fluorobenzene)sulfonamido]ethoxy]ethoxy)ethyl]carbamoyl]amino)butyl]urea; bis(trifluoroacetic acid)], for which the inhibition at 1 µM in assay [1] was > 70%. The “% inhibition” value in assay [2] is “C (>70%)”.
With `Cc1cc(Cl)cc2c1C[C@H](N1CCNCC1)[C@H]2Oc1ccc(S(=O)(=O)NCCOCCOCCNC(=O)NCCCCNC(=O)NCCOCCOCCNS(=O)(=O)c2ccc(O[C@H]3c4cc(Cl)cc(C)c4C[C@@H]3N3CCNCC3)cc2)cc1` [Example 34, 3-[2-(2-[2-[(4-[[(1S,2S)-6-Chloro-4-methyl-2-(piperazin-1-yl)-2,3-dihydro-1H-inden-1-yl]oxy]benzene)sulfonamido]ethoxy]ethoxy)ethyl]-1-[4-([[2-(2-[2-[(4-[[(1S,2S)-6-chloro-4-methyl-2-(piperazin-1-yl)-2,3-dihydro-1H-inden-1-yl]oxy]benzene)sulfonamido]ethoxy]ethyl)ethyl]carbamoyl]amino)butyl]urea; bis(trifluoroacetic acid)], the inhibition at 1 µM in assay [1] lay in the range of 50 to 70%. Besides, the “% inhibition” value in assay [2] is on record as “C (>70%)”.
Turning to `Cc1cc(S(=O)(=O)NCCOCCOCCNC(=O)NCCCCNC(=O)NCCOCCOCCNS(=O)(=O)c2ccc(O[C@H]3c4cc(Cl)cc(C)c4C[C@@H]3N3CCNCC3)c(C)c2)ccc1O[C@H]1c2cc(Cl)cc(C)c2C[C@@H]1N1CCNCC1` [Example 35, 3-[2-(2-[2-[(4-[[(1S,2S)-6-Chloro-4-methyl-2-(piperazin-1-yl)-2,3-dihydro-1H-inden-1-yl]oxy]-3-methylbenzene)sulfonamido]ethoxy]ethoxy)ethyl]-1-[4-([[2-(2-[2-[(4-[[(1S,2S)-6-chloro-4-methyl-2-(piperazin-1-yl)-2,3-dihydro-1H-inden-1-yl]oxy]-3-methylbenzene)sulfonamido]ethoxy]ethoxy)ethyl]carbamoyl]amino)butyl]urea; bis(trifluoroacetic acid)], the inhibition at 1 µM in assay [1] is > 70%. Moreover, in assay [2], the “% inhibition” value is “C (>70%)” and the pIC50 entry is “C (NHE3 pIC50 > 7)”.
In the same order, the values of `Cc1cc(Cl)cc2c1C[C@H](N1CCNCC1)[C@H]2Oc1ccc(S(=O)(=O)NCCOCCOCCNC(=O)NCCCCNC(=O)NCCOCCOCCNS(=O)(=O)c2ccc(O[C@H]3c4cc(Cl)cc(C)c4C[C@@H]3N3CCNCC3)c(F)c2)cc1F` [Example 36, 3-[2-(2-[2-[(4-[[(1S,2S)-6-Chloro-4-methyl-2-(piperazin-1-yl)-2,3-dihydro-1H-inden-1-yl]oxy]-3-fluorobenzene)sulfonamido]ethoxy]ethoxy)ethyl]-1-[4-([[2-(2-[2-[(4-[[(1S,2S)-6-chloro-4-methyl-2-(piperazin-1-yl)-2,3-dihydro-1H-inden-1-yl]oxy]-3-fluorobenzene)sulfonamido]ethoxy]ethoxy)ethyl]carbamoyl]amino)butyl]urea; bis(trifluoroacetic acid)] are > 70%, “C (>70%)” and “C (NHE3 pIC50 > 7)”.
For `N#Cc1cc(Cl)cc2c1C[C@H](N1CCNCC1)[C@H]2Oc1ccc(S(=O)(=O)NCCOCCOCCNC(=O)NCCCCNC(=O)NCCOCCOCCNS(=O)(=O)c2ccc(O[C@H]3c4cc(Cl)cc(C#N)c4C[C@@H]3N3CCNCC3)cc2)cc1` [Example 41, 3-[2-(2-[2-[(4-[[(1S,2S)-6-Chloro-4-cyano-2-(piperazin-1-yl)-2,3-dihydro-1H-inden-1-yl]oxy]benzene)sulfonamido]ethoxy]ethoxy)ethyl]-1-[4-([[2-(2-[2-[(4-[[(1S,2S)-6-chloro-4-cyano-2-(piperazin-1-yl)-2,3-dihydro-1H-inden-1-yl]oxy]benzene)sulfonamido]ethoxy]ethoxy)ethyl]carbamoyl]amino)butyl]urea; bis(trifluoroacetic acid)], in that order: > 70%, “C (>70%)” and “C (NHE3 pIC50 > 7)”.
In the same order, the values of `Cc1cc(S(=O)(=O)NCCOCCOCCNC(=O)NCCCCNC(=O)NCCOCCOCCNS(=O)(=O)c2ccc(O[C@H]3c4cc(Cl)cc(C#N)c4C[C@@H]3N3CCNCC3)c(C)c2)ccc1O[C@H]1c2cc(Cl)cc(C#N)c2C[C@@H]1N1CCNCC1` [Example 42, 3-[2-(2-[2-[(4-[[(1S,2S)-6-Chloro-4-cyano-2-(piperazin-1-yl)-2,3-dihydro-1H-inden-1-yl]oxy]-3-methylbenzene)sulfonamido]ethoxy]ethoxy)ethyl]-1-[4-([[2-(2-[2-[(4-[[(1S,2S)-6-chloro-4-cyano-2-(piperazin-1-yl)-2,3-dihydro-1H-inden-1-yl]oxy]-3-methylbenzene)sulfonamido]ethoxy]ethoxy)ethyl]carbamoyl]amino)butyl]urea; bis(trifluoroacetic acid)] are > 70%, “C (>70%)” and “C (NHE3 pIC50 > 7)”.

A word on the inhibition: it is the relative decrease from the control value, in per cent. A low value points to a weak effect.
